Results taken from patent US7285393B2, “Assay for modulation of γ secretase” (Merck Sharp & Dohme Limited, priority 2002, dated 2007).

Experiments:
[1] = target: T1, γ-secretase complex (PS1 heterodimer and nicastrin) (Homo sapiens, UniProt P49768); experiment: Inhibitor affinity precipitation of CHAPSO-solubilized γ-secretase with biotinylated Merck C, Western blot; type: binding; conditions: test compound 200 μM, Merck C 0.1 μM, 2.5 mg beads
T1 construct: mainly occurs as a heterodimer of its N- and C-terminal fragment; endogenous in cells; host or cells: human SH-SY5Y neuroblastoma cell membranes, solubilised in 1% CHAPSO and diluted to 0.5%
Description: Western blot analyses—Equal amounts of protein were separated by SDS-polyacrylamide gel electrophoresis and transferred to nitrocellulose membranes. Probing of the membranes was carried out with various antibodies, as indicated in the figures, using the enhanced-chemiluminescence system (ECL, Amersham). Quantitation of bands using a computerized image analysis system (MCID, Imaging Research Inc.) was performed as described previously (Beher et al., 1999).
CHAPSO-solubilization of active γ-secretase and inhibitor affinity precipitations—SH-SY5Y membranes stored in PBS, 5% glycerol were collected by centrifugation for 30 min at 180,000 g. Membrane proteins were solubilized in 1% (w/v) CHAPSO, 50 mM MES-NaOH, pH 6.0, 0.15 M NaCl, 5 mM MgCl2, 1×EDTA-free protease inhibitor mixture (Roche Molecular Biochemicals). Insoluble debris was removed by centrifugation at 180,000 g for 30 min and the resulting supernatant (solubilized γ-secretase) adjusted with the same buffer without CHAPSO to give a final detergent concentration of 0.5% CHAPSO (w/v). Endogenous biotinylated proteins were removed by adding streptavidin-coupled magnetic beads and centrifugation for 2 min at 20,000 g after an incubation for 30 min at 4° C. […]

[2] = system: Aβ42, Aβ38 and Aβ40 production; conditions: cited from earlier work
γ(40)-secretase activity = target: T2, γ(40)-secretase activity (Homo sapiens, UniProt P49768); experiment: Exogenous substrate γ-secretase assay, Aβ(40) generation from C100Flag; type: biochemical; conditions: SH-SY5Y membranes, recombinant C100Flag substrate, 0.5% CHAPSO
T2 construct: utilizing SH-SY5Y membranes as source of γ-secretase enzyme; endogenous in cells; host or cells: human SH-SY5Y neuroblastoma cell membranes (0.5% CHAPSO)
Description: (§1) Exogenous substrate γ-secretase assays—For determination of the potencies of Merck A and B, membranes from SH-SY5Y membranes stored in PBS, 5% glycerol were collected by centrifugation for 30 min at 180,000 g. For in vitro generation of Aβ peptides, 80 μg of membranes were incubated with 7.5 μg of recombinant C100Flag (Li et al., 2000a) in 20 mM HEPES, pH 7.3, 2 mM EDTA, 0.1% bovine serum albumin, 0.5% CHAPSO in 100 μl final volume similar to described methods (Li et al., 2000a) in the presence of increasing compound concentrations. Aβ peptides were quantified by an electrochemiluminescence assay in a 96-well plate format [Origen M-Series™ analyzer, Igen] as described (Beher et al., 2001) using 35 μl of the reaction for Aβ(40) and 50 μl for Aβ(42) detection. Non-specific background was defined by the signal obtained when the assay was performed in the presence of 10 μM of Merck A. For determination of γ-secretase activity in the sucrose gradient fractions, 20 μl of each fraction were incubated with 10 μg of recombinant C100Flag and processed further as above.
(§2) FIG. 1. γ-Secretase inhibitors synthesized for this study and their potencies for inhibition of γ(40)- and γ(42)-secretase activities. […] The reduction of Aβ generation was measured relative to Me2SO-treated controls and error bars indicate the standard error the mean from triplicate experiments.

γ(42)-secretase activity = target: T3, γ(42)-secretase activity (Homo sapiens, UniProt P49768); experiment: Exogenous substrate γ-secretase assay, Aβ(42) generation from C100Flag; type: biochemical; conditions: SH-SY5Y membranes, recombinant C100Flag substrate, 0.5% CHAPSO
T3 construct: utilizing SH-SY5Y membranes as source of γ-secretase enzyme; endogenous in cells; host or cells: human SH-SY5Y neuroblastoma cell membranes (0.5% CHAPSO)
Description: as §1, §2

Row | Compound | Effect on capture efficiency for PS1 heterodimer and mature nicastrin by Merck C [1] | Effect on production of Aβ38 [2] | Effect on production of Aβ40 [2] | Effect on production of Aβ42 [2] | IC50 for inhibition of γ(40)-secretase activity (in vitro generation of Aβ(40)) (γ(40)-secretase activity) | IC50 for inhibition of γ(42)-secretase activity (in vitro generation of Aβ(42)) (γ(42)-secretase activity)
1 | CSc1ccc(/C=C2/C(C)=C(CC(=O)O)c3cc(F)ccc32)cc1 [sulindac sulphide] | enhanced | increasing | constant | inhibit | – | –
2 | CC(C)Cc1ccc(C(C)C(=O)O)cc1 (stereo not shown) [ibuprofen] | – | increasing | constant | inhibit | – | –
3 | CC1=C(CC(=O)O)c2cc(F)ccc2/C1=C\c1ccc(S(C)(=O)=O)cc1 [sulindac sulfone] | comparable to the DMSO (Me2O) control | – | – | does not lower | – | –
4 | CC(C)CC(NC(=O)C(Cc1ccccc1)CC(O)C(Cc1ccccc1)NC(=O)OC(C)(C)C)C(=O)NC(Cc1ccccc1)C(=O)NCCCCCNC(=O)CCCCCNC(=O)CCCCCNC(=O)CCCCCN (stereo not shown) [Merck B] | – | – | – | – | low nanomolar range | low nanomolar range
5 | CC(C)CC(NC(=O)C(Cc1ccccc1)CC(O)C(Cc1ccccc1)NC(=O)OC(C)(C)C)C(=O)NC(Cc1ccccc1)C(N)=O (stereo not shown) [Merck A] | – | – | – | – | low nanomolar range | low nanomolar range
6 | COc1ccc2c(c1)c(CC(=O)O)c(C)n2C(=O)c1ccc(Cl)cc1 [indomethacin] | – | increasing | constant | inhibit | – | –
